Measured values taken from patent US20230265524A1, “IMMUNOGENIC RETROELEMENTS AND THEIR USE IN CANCER THERAPY” (UNIVERSITY HEALTH NETWORK, priority 2020, published 2023).

Assays:
[1] = system: patient-derived colorectal cancer cells (CRCs); experiment: total stranded RNA-seq of repeat element expression after 5-AZA-CdR; assay type: cell-based, human; conditions: low doses of 5-AZA-CdR, 5 days, vs mock-treated
Experimental: A, Effect of 5-AZA-CdR on repeat element expression in patient-derived xenograft colorectal cancer cells after 5 days of treatment. Plots show log (fold change) for 5-AZA-CdR treated cells over mock-treated cells for anti-sense (y-axis) and sense (x-axis) transcripts of each SINE, LINE and ERV repeat element (CPM). […] The significance was determined as p≤0.05 and |log FC|≥1 at each strand.
To identify drug-induced immunogenic retroelements on a global scale, we examined the endogenous dsRNA formation in patient-derived colorectal cancer cells (CRCs) that were treated with low doses of 5-AZA-CdR, an FDA-approved DNMTi, or mock-treated. To this end, we performed total stranded RNA-seq and assessed repetitive elements transcribed in both strands, therefore likely to produce dsRNA species.

[2] = system: patient-derived CRC cells; experiment: survival of patient-derived CRC cells, luminescence dose-response; assay type: cell-based, human; conditions: in vitro, ADAR1-knockdown vs wild-type patient-derived CRC cells
Experimental: A, Survival of wild-type ADAR1 (black) and ADAR1-knockdown (gray) patient-derived CRC cells after treatment with 5-AZA-CdR. Luminescence signal was normalized, and dose-response curves and EC50 values were calculated using a nonlinear regression curve fit.
Finally, we sought to investigate whether ADAR1 inhibition would synergize with epigenetic therapy to increase the anti-tumour response. […] To examine the potential synergy in vivo, we injected ADAR1^KDA/B or wildtype patient-derived xenograft CRC cells subcutaneously into immune-deficient NOD.Cg-Prkdc (NSG) mice, and treated the mice with 5-AZA-CdR or vehicle (PBS) (FIG. 12B and FIG. 13A). […] Thus, ADAR1 inhibition in human cancer cells profoundly sensitizes tumours to 5-AZA-CdR treatment in vivo.

Nc1ncn([C@H]2C[C@H](O)[C@@H](CO)O2)c(=O)n1 [5-AZA-CdR]
sense and/or antisense transcription of repeat elements (LINEs, ERVs, SINEs) [1]: increased sense and/or antisense transcription of long interspersed nuclear elements (LINEs) and ERVs, but not short interspersed nuclear elements (SINEs) | reduction of EC50 by ADAR1 knock-down [2]: four to six-fold reduction
